In patent US20050070510A1, “Substituted tetracycline compounds as synergistic antifungal agents” (Paratek Pharmaceuticals, Inc., priority 2001, published 2005):

system: COS-1 cells; test: In vitro mammalian cytotoxicity assay (Resazurin)

| Compound | In Vitro Cytotoxicity |
| --- | --- |
| CC(=O)C(N)c1cc(C(C)(C)C)c(O)c2c1C[C@@]1(N)C[C@@]3(N)[C@H](N(C)C)C(O)=C(C(N)=O)C(=O)[C@@]3(C#N)C(O)=C1C2=O (stereo partly drawn) [NN] | * (toxicities greater than >25 μg/ml are represented by *) |
| CN(C)[C@@H]1C(O)=C(C(N)=O)C(=O)[C@@]2(C#N)C(O)=C3C(=O)c4c(ccc(NC=O)c4O)C(N)[C@@]3(N)[C@H](O)[C@@]12N (stereo partly drawn) [DC] | ** (toxicities less than 25 μg/mL are represented by **) |
| CC(C)c1ccc(CNc2cc(N(C)C)c3c(c2O)C(=O)C2=C(O)[C@]4(C#N)C(=O)C(C(N)=O)=C(O)[C@@H](N(C)C)[C@]4(N)C[C@]2(N)C3)cc1 [TV] | ** (toxicities less than 25 μg/mL are represented by **) |
| CCC(C)CNCc1cc(N(C)C)c2c(c1O)C(=O)C1=C(O)[C@]3(C#N)C(=O)C(C(N)=O)=C(O)[C@@H](N(C)C)[C@]3(N)C[C@]1(N)C2 (stereo partly drawn) [SZ] | * (toxicities greater than >25 μg/ml are represented by *) |
| CCCCc1cc(CN)c(O)c2c1C[C@@]1(N)C[C@@]3(N)[C@H](N(C)C)C(O)=C(C(N)=O)C(=O)[C@@]3(C#N)C(O)=C1C2=O [KV] | * (toxicities greater than >25 μg/ml are represented by *) |
| COc1ccc(-c2ccc(O)c3c2C[C@@]2(N)C[C@@]4(N)[C@H](N(C)C)C(O)=C(C(N)=O)C(=O)[C@@]4(C#N)C(O)=C2C3=O)c(OC)c1 [OM] | ** (toxicities less than 25 μg/mL are represented by **) |
| CN(C)c1cc(-c2cccc([N+](=O)O)c2)c(O)c2c1C[C@@]1(N)C[C@@]3(N)[C@H](N(C)C)C(O)=C(C(N)=O)C(=O)[C@@]3(C#N)C(O)=C1C2=O [EG] | ** (toxicities less than 25 μg/mL are represented by **) |
| CN(C)[C@@H]1C(O)=C(C(N)=O)C(=O)[C@@]2(C#N)C(O)=C3C(=O)c4c(O)ccc(/C=C/C(=O)OC(C)(C)C)c4C[C@@]3(N)C[C@@]12N [JD] | * (toxicities greater than >25 μg/ml are represented by *) |
| CCNC(=O)NCc1cc(N(C)C)c2c(c1O)C(=O)C1=C(O)[C@]3(C#N)C(=O)C(C(N)=O)=C(O)[C@@H](N(C)C)[C@]3(N)C[C@]1(N)C2 [MH] | * (toxicities greater than >25 μg/ml are represented by *) |
| COC(=O)c1ccc(-c2ccc(O)c3c2C[C@@]2(N)C[C@@]4(N)[C@H](N(C)C)C(O)=C(C(N)=O)C(=O)[C@@]4(C#N)C(O)=C2C3=O)cc1 [EF] | ** (toxicities less than 25 μg/mL are represented by **) |
| CN(C)[C@@H]1C(O)=C(C(N)=O)C(=O)[C@@]2(C#N)C(O)=C3C(=O)c4c(O)ccc(CCC5CCCCC5)c4C[C@@]3(N)C[C@@]12N [IX] | ** (toxicities less than 25 μg/mL are represented by **) |
| Cc1ccc(OC(=O)NCc2cc(N(C)C)c3c(c2O)C(=O)C2=C(O)[C@]4(C#N)C(=O)C(C(N)=O)=C(O)[C@@H](N(C)C)[C@]4(N)C[C@]2(N)C3)cc1 [MU] | ** (toxicities less than 25 μg/mL are represented by **) |
| CC(C)CC(Cc1ccc(O)c2c1C[C@@]1(N)C[C@@]3(N)[C@H](N(C)C)C(O)=C(C(N)=O)C(=O)[C@@]3(C#N)C(O)=C1C2=O)CC(C)C [RN] | ** (toxicities less than 25 μg/mL are represented by **) |
| CN(C)c1cc(CNCc2ccccc2)c(O)c2c1C[C@@]1(N)C[C@@]3(N)[C@H](N(C)C)C(O)=C(C(N)=O)C(=O)[C@@]3(C#N)C(O)=C1C2=O [TH] | * (toxicities greater than >25 μg/ml are represented by *) |
| CN(C)[C@@H]1C(O)=C(C(N)=O)C(=O)[C@@]2(C#N)C(O)=C3C(=O)c4c(O)cccc4[C@H](N)[C@@]3(N)[C@H]([S+](N)[O-])[C@@]12N (stereo partly drawn) [BS] | ** (toxicities less than 25 μg/mL are represented by **) |
| CN(C)[C@@H]1C(O)=C(C(N)=O)C(=O)[C@@]2(C#N)C(O)=C3C(=O)c4c(O)ccc(-c5ccc(CNCCc6ccc(Cl)cc6)cc5)c4C[C@@]3(N)C[C@@]12N [OF] | ** (toxicities less than 25 μg/mL are represented by **) |
| CN(C)[C@@H]1C(O)=C(C(N)=O)C(=O)[C@@]2(C#N)C(O)=C3C(=O)c4c(ccc(-c5cccc(C(N)=O)c5)c4O)[C@H](N)[C@@]3(N)[C@H](O)[C@@]12N [PP] | ** (toxicities less than 25 μg/mL are represented by **) |
| CC(=O)Oc1cccc(-c2cc(N(C)C)c3c(c2O)C(=O)C2=C(O)[C@]4(C#N)C(=O)C(C(N)=O)=C(O)[C@@H](N(C)C)[C@]4(N)C[C@]2(N)C3)c1 [GP] | * (toxicities greater than >25 μg/ml are represented by *) |
| C=CCOC(=O)Nc1ccc(-c2ccc(O)c3c2C[C@@]2(N)C[C@@]4(N)[C@H](N(C)C)C(O)=C(C(N)=O)C(=O)[C@@]4(C#N)C(O)=C2C3=O)cc1 [OZ] | ** (toxicities less than 25 μg/mL are represented by **) |
| CN(C)[C@@H]1C(O)=C(C(N)=O)C(=O)[C@@]2(C#N)C(O)=C3C(=O)c4c(O)ccc(-c5ccc(NC(=O)CNC(C)(C)C)cc5)c4C[C@@]3(N)C[C@@]12N [UZ] | ** (toxicities less than 25 μg/mL are represented by **) |
| CN(C)CC(=O)Nc1ccc(C#Cc2ccc(O)c3c2C[C@@]2(N)C[C@@]4(N)[C@H](N(C)C)C(O)=C(C(N)=O)C(=O)[C@@]4(C#N)C(O)=C2C3=O)cc1 [GY] | * (toxicities greater than >25 μg/ml are represented by *) |

| Compound | In Vitro Cytotoxicity |
| --- | --- |
| CN(C)[C@@H]1C(O)=C(C(N)=O)C(=O)[C@@]2(OC(=O)CC(C)(C)C)C(O)=C3C(=O)c4c(ccc(NC(=O)NC(C)(C)C)c4O)[C@H](N)[C@@]3(N)[C@H](O)[C@@]12N [BG] | ** (toxicities less than 25 μg/mL are represented by **) |
| COc1ccc(CNCCc2ccccc2)cc1-c1ccc(O)c2c1C[C@@]1(N)C[C@@]3(N)[C@H](N(C)C)C(O)=C(C(N)=O)C(=O)[C@@]3(C#N)C(O)=C1C2=O [NH] | ** (toxicities less than 25 μg/mL are represented by **) |
| CN(C)c1cc(C#Cc2ccc(F)cc2)c(O)c2c1C[C@@]1(N)C[C@@]3(N)[C@H](N(C)C)C(O)=C(C(N)=O)C(=O)[C@@]3(C#N)C(O)=C1C2=O [FF] | ** (toxicities less than 25 μg/mL are represented by **) |
| CCOc1ccc(-c2ccc(O)c3c2C[C@@]2(N)C[C@@]4(N)[C@H](N(C)C)C(O)=C(C(N)=O)C(=O)[C@@]4(C#N)C(O)=C2C3=O)cc1CNC(=O)NC(C)(C)C [QG] | * (toxicities greater than >25 μg/ml are represented by *) |
| CN(C)[C@@H]1C(O)=C(C(N)=O)C(=O)[C@@]2(C#N)C(O)=C3C(=O)c4c(O)ccc(-c5cccc(CNCc6ccccc6)c5)c4C[C@@]3(N)C[C@@]12N [HN] | ** (toxicities less than 25 μg/mL are represented by **) |
| CN(C)C1C(O)=C(C(N)=O)C(=O)[C@@]2(C#N)C(O)=C3C(=O)c4c(O)ccc(-c5ccc(NC(=O)c6ccno6)cc5)c4C[C@@]3(N)C[C@@]12N (stereo partly drawn) [RH] | * (toxicities greater than >25 μg/ml are represented by *) |
| C#CCOC(=O)Nc1cc(N(C)C)c2c(c1O)C(=O)C1=C(O)[C@]3(C#N)C(=O)C(C(N)=O)=C(O)[C@@H](N(C)C)[C@]3(N)C[C@]1(N)C2 [SL] | ** (toxicities less than 25 μg/mL are represented by **) |
| CC(=O)Nc1ccc(C#Cc2ccc(O)c3c2C[C@@]2(N)C[C@@]4(N)[C@H](N(C)C)C(O)=C(C(N)=O)C(=O)[C@@]4(C#N)C(O)=C2C3=O)cc1 [IU] | * (toxicities greater than >25 μg/ml are represented by *) |
| CN(C)[C@@H]1C(O)=C(C(N)=O)C(=O)[C@@]2(C#N)C(O)=C3C(=O)c4c(O)cccc4C(N)[C@@]3(N)[C@H](O)[C@@]12N (stereo partly drawn) [CZ] | ** (toxicities less than 25 μg/mL are represented by **) |
| CCCCCc1ccc(O)c2c1C[C@@]1(N)C[C@@]3(N)[C@H](N(C)C)C(O)=C(C(N)=O)C(=O)[C@@]3(C#N)C(O)=C1C2=O [JU] | ** (toxicities less than 25 μg/mL are represented by **) |
| CC(C)COC(=O)NCc1ccc(-c2ccc(O)c3c2C[C@@]2(N)C[C@@]4(N)[C@H](N(C)C)C(O)=C(C(N)=O)C(=O)[C@@]4(C#N)C(O)=C2C3=O)cc1 [NS] | ** (toxicities less than 25 μg/mL are represented by **) |
| CN(C)[C@@H]1C(O)=C(C(N)=O)C(=O)[C@@]2(C#N)C(O)=C3C(=O)c4c(ccc(CC(=O)c5ccno5)c4O)C[C@@]3(N)C[C@@]12N [RF] | * (toxicities greater than >25 μg/ml are represented by *) |
| CN(C)c1cc(NCc2ccc(O)c(O)c2)c(O)c2c1C[C@@]1(N)C[C@@]3(N)[C@H](N(C)C)C(O)=C(C(N)=O)C(=O)[C@@]3(C#N)C(O)=C1C2=O [TY] | * (toxicities greater than >25 μg/ml are represented by *) |
| CN(C)[C@@H]1C(O)=C(C(N)=O)C(=O)[C@@]2(C#N)C(O)=C3C(=O)c4c(ccc(C(C)(C)CCC[N+](=O)[O-])c4O)[C@H](N)[C@@]3(N)[C@H](O)[C@@]12N [BF] | ** (toxicities less than 25 μg/mL are represented by **) |
| CCOC(=O)Nc1cc(N(C)C)c2c(c1O)C(=O)C1=C(O)[C@]3(C#N)C(=O)C(C(N)=O)=C(O)[C@@H](N(C)C)[C@]3(N)C[C@]1(N)C2 [KH] | ** (toxicities less than 25 μg/mL are represented by **) |
| CCC(=O)c1ccc(O)c2c1C[C@@]1(N)C[C@@]3(N)[C@H](N(C)C)C(O)=C(C(N)=O)C(=O)[C@@]3(C#N)C(O)=C1C2=O [LI] | ** (toxicities less than 25 μg/mL are represented by **) |
| CN(C)[C@@H]1C(O)=C(C(N)=O)C(=O)[C@@]2(C#N)C(O)=C3C(=O)c4c(O)c(CNCC(C)(C)C)cc(CNCC(C)(C)C)c4C[C@@]3(N)C[C@@]12N [TG] | * (toxicities greater than >25 μg/ml are represented by *) |
| Cc1ccc(-c2ccc(O)c3c2C[C@@]2(N)C[C@@]4(N)[C@H](N(C)C)C(O)=C(C(N)=O)C(=O)[C@@]4(C#N)C(O)=C2C3=O)cc1N [PK] | ** (toxicities less than 25 μg/mL are represented by **) |
| COc1ccc(Cl)cc1-c1ccc(O)c2c1C[C@@]1(N)C[C@@]3(N)[C@H](N(C)C)C(O)=C(C(N)=O)C(=O)[C@@]3(C#N)C(O)=C1C2=O [GL] | ** (toxicities less than 25 μg/mL are represented by **) |
| CCCCc1ccc(-c2cc(N(C)C)c3c(c2O)C(=O)C2=C(O)[C@]4(C#N)C(=O)C(C(N)=O)=C(O)[C@@H](N(C)C)[C@]4(N)C[C@]2(N)C3)cc1 [LY] | ** (toxicities less than 25 μg/mL are represented by **) |
| CN(C)[C@@H]1C(O)=C(C(N)=O)C(=O)[C@@]2(C#N)C(O)=C3C(=O)c4c(O)ccc(C#Cc5ccc(NS(C)(=O)=O)cc5)c4C[C@@]3(N)C[C@@]12N [HO] | ** (toxicities less than 25 μg/mL are represented by **) |
